Results published in the supplement of paper PMC10307832.

Assays:
Experiment in all cases: relative viability (nuclei count vs DMSO), 5 days (fraction); higher = more cells survive
[1] = compound: CC[C@H](C)N1C=C(C2=C(C=C(C=C21)C3=CN=C(C=C3)N4CCNCC4)C(=O)NCC5=C(C=C(NC5=O)C)C)C [GSK126] + C[C@]1(O)C[C@@H](c2nc(-c3ccc4ccc(-c5ccccc5)nc4c3)c3c(N)nccn32)C1 [Linsitinib] (partner 1 µM)
Outline: (§1)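 Nuclei were stained with Hoechst during a one-step fixation (final 0.05% Triton X-100, 1% formaldehyde, 1 ug/ml Hoechst) carried out 5 days after dosing, then counted on 4× images. The cells, lung cancer lines in 1536-well plates, had been dosed by pin tool the day after seeding with one drug alone or a fixed anchor-drug dose plus five library-drug doses (not always all listed) in √10 steps. Relative viability is the nuclei count in treated wells divided by that in vehicle wells, and each value is the median of duplicate plates.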

[2] = compound: NS(=O)(=O)OC[C@@H]1C[C@@H](n2ccc3c(N[C@H]4CCc5ccccc54)ncnc32)C[C@@H]1O [MLN4924] + Nc1nc2[nH]cc(CCc3ccc(C(=O)N[C@@H](CCC(=O)O)C(=O)O)cc3)c2c(=O)[nH]1 [Pemetrexed] (partner 0.2 µM)
Outline: as §1

[3] = compound: NS(=O)(=O)OC[C@@H]1C[C@@H](n2ccc3c(N[C@H]4CCc5ccccc54)ncnc32)C[C@@H]1O [MLN4924] + NC(=O)Nc1cc(-c2cccc(F)c2)sc1C(=O)N[C@H]1CCCNC1 [AZD7762] (partner 0.2 µM)
Outline: as §1

[4] = compound: NS(=O)(=O)OC[C@@H]1C[C@@H](n2ccc3c(N[C@H]4CCc5ccccc54)ncnc32)C[C@@H]1O [MLN4924] + COc1cccc2cc(-c3nc([C@H]4CC[C@H](C(=O)O)CC4)n4ncnc(N)c34)[nH]c12 [OSI-027] (partner 0.5 µM)
Outline: as §1

Cell Line	relative viability ([1]; first compound 0.08 µM)	relative viability ([1]; first compound 0.253 µM)	relative viability ([1]; first compound 0.8 µM)	relative viability ([1]; first compound 2.53 µM)	relative viability ([1]; first compound 8 µM)	relative viability ([2]; first compound 0.04 µM)	relative viability ([2]; first compound 0.1265 µM)	relative viability ([2]; first compound 0.4 µM)	relative viability ([2]; first compound 1.265 µM)	relative viability ([2]; first compound 4 µM)	relative viability ([3]; first compound 0.04 µM)	relative viability ([3]; first compound 0.1265 µM)	relative viability ([3]; first compound 0.4 µM)	relative viability ([3]; first compound 1.265 µM)	relative viability ([3]; first compound 4 µM)	relative viability ([4]; first compound 0.04 µM)	relative viability ([4]; first compound 0.1265 µM)	relative viability ([4]; first compound 0.4 µM)	relative viability ([4]; first compound 1.265 µM)	relative viability ([4]; first compound 4 µM)
HARA	1.01	0.898	0.872	0.976	0.836	0.215	0.164	0.14	0.0838	0.183	0.42	0.328	0.415	0.0749	0.106	0.465	0.361	0.271	0.0502	0.0686
NCI-H1915	1.2	1.08	1.14	1.17	1.16	0.625	0.66	0.479	0.144	0.176	0.844	0.786	0.713	0.265	0.162	0.567	0.544	0.452	0.213	0.205
NCI-H650	1.11	0.789	0.934	0.974	1.13	0.921	0.471	0.213	0.15	0.165	1.1	0.578	0.371	0.231	0.148	0.344	0.415	0.235	0.162	0.187
NCI-H2126	0.759	0.732	0.725	0.721	0.713	0.659	0.676	0.435	0.278	0.281	1.02	1.02	0.767	0.49	0.369	0.665	0.75	0.59	0.407	0.346
NCI-H838	1.12	0.979	0.952	0.906	0.866	0.225	0.2	0.188	0.173	0.164	0.916	0.82	0.737	0.589	0.618	0.364	0.241	0.224	0.154	0.166
EPLC-272H	1.4	1.16	1.06	1.17	1.23	0.242	0.195	0.0979	0.128	0.155	0.27	0.239	0.0814	0.133	0.106	0.291	0.265	0.0696	0.13	0.136
NCI-H1437	1.07	1.07	0.954	0.983	0.938	0.314	0.275	0.28	0.208	0.177	0.999	0.852	0.855	0.589	0.285	0.845	0.914	0.828	0.305	0.174
NCI-H2405	1.02	0.829	0.876	1	0.927	0.806	0.863	0.44	0.187	0.193	1.05	0.964	0.557	0.225	0.245	0.749	0.684	0.493	0.309	0.271
NCI-H1666	0.857	1.01	0.898	0.768	1.08	0.734	0.742	0.645	0.409	0.488	0.726	0.755	0.614	0.356	0.362	0.862	0.892	0.711	0.351	0.325
NCI-H1993	0.827	0.713	0.728	0.752	0.734	0.592	0.471	0.421	0.441	0.382	0.756	0.572	0.424	0.369	0.405	0.549	0.523	0.532	0.488	0.52
HCC-78	0.662	0.547	0.518	0.465	0.47	0.882	0.899	0.918	0.881	0.892	0.665	0.754	0.981	0.265	0.251	0.416	0.349	0.399	0.27	0.236
LU99A	0.52	0.513	0.605	0.503	0.652	0.185	0.175	0.18	0.189	0.129	0.28	0.214	0.185	0.154	0.114	0.293	0.315	0.247	0.196	0.222
NCI-H1975	1.02	1.01	0.983	0.96	0.987	0.284	0.331	0.278	0.272	0.209	0.636	0.973	1.54	1.79	0.756	0.704	0.934	1	0.618	0.261
NCI-H1355	0.947	0.872	0.793	0.637	0.841	1.01	1.07	0.879	0.547	0.256	0.833	0.875	0.788	0.441	0.234	0.456	0.388	0.277	0.221	0.231
NCI-H1755	1.01	1.04	1.01	0.967	1.03	0.378	0.268	0.282	0.178	0.186	0.604	0.682	0.666	0.411	0.255	0.681	0.518	0.4	0.207	0.208
